Assay results: patent publication US20030144174A1, “METHODS FOR IDENTIFYING COMPOUNDS USEFUL FOR THE REGULATION OF BODY WEIGHT AND ASSOCIATED CONDITIONS” (priority 1998, published 2003)
Entries after “also recorded” stand apart in the source; their conditions may differ.

Columns and labels:
Format in all cases: in vivo, mouse
ob/ob mutants [1] = assay: Core temperature of ob/ob mutants exposed to 4° C. (Example 5, FIG. 10); details: 7 micrograms; 5 hours without food, then 4° C. for 65 minutes; versus vehicle treated ob/ob
Experimental: In 1977, the decreased ability of ob/ob mutants to maintain body temperature at 4° C. was noted. This preceded the onset of obesity in these mice. In view of the evidence that MSH regulates adipocyte metabolism, the present inventors hypothesized that the low levels of circulating MSH in leptin deficient (ob/ob) mutants was responsible for the impaired thermal regulation. To test this, ob/ob mutants were injected with 7 micrograms of MSH analog or vehicle only as described above. The mice were left without food for 5 hours and then exposed to 4° C. for 65 minutes. Their core temperatures were measured periodically by transfer to a coldroom (4° C.) where core temperatures were measured using a digital thermometer fitted with a rectal probe (Atkins Technical Inc., Gainesville, Fla.). […] As the mice had no opportunity to eat between injection of the MSH analog and the cold challenge, food intake cannot be responsible for the altered thermal regulation.

wildtype female mice = assay: Daily intraperitoneal α-MSH analog in wildtype littermates: body weight, food intake (Example 2); details: for weight loss in wildtype littermates: 1 microgram i.p. daily, 16-day treatment
Experimental: (§1) To test initially for the effect of peripheral melanocortins on weight change, we selected the stable agonist [Ac-Cys^4, D-Phe^7, Cys^10] α-MSH (4-13) (described in Cody et al., 1985, J. Med. Chem. 28, 583-588; incorporated herein by reference in its entirety). Briefly, [Ac-Cys^4,D-Phe^7, Cys^10] α-MSH (4-13) amide, having the cysteines connected by a disulfide bridge, was obtained from Peninsula Laboratories, CA. Lyophilized powder was dissolved in water at 1 mg/ml, which was diluted in PBS to 10 μg/mL. During the experiments, mice were maintained on a normal 12 h/12 h light/dark cycle with food and water ad libitum. Mice were fed standard laboratory rodent diet (#5001).
(§2) In order to see whether the α-MSH analog has an effect on food intake, we compared weight change and food intake in these mice for one week (see bars in FIGS. 4A and 4B) under MSH analog treatment and after MSH analog treatment was stopped (FIGS. 4C and 4D). During one week under MSH analog treatment mutant mice lost 0.5 g, while wildtype littermates gained 0.3 g; the food intake during this time was equivalent in both groups (20.7 g in wildtypes, and 22.7 g in mutants).

ob/ob mutants [2] = assay: Weight gain and food intake in ob/ob mutants given leptin, MSH analog or both (Example 5, FIGS. 8 and 9)
Experimental: Leptin deficient (ob/ob) mutants show both hyperphagia and “increased metabolic efficiency” as witnessed by their ability to gain weight even when pair-fed with normal congenic controls. To determine the effects of leptin and MSH on food intake and weight gain, four sets of ob/ob mutants were treated with leptin, an MSH analog, both together, or vehicle alone. The MSH analog [Ac-Cys^4, D-Phe^7, Cys^10] α-MSH (4-13) was purchased from Peninsula Laboratories (Belmont, Calif.). Mice were treated with daily injections of 7 micrograms of each, both or neither.

obese lep^ob/ob mice = assay: Total weight change in obese lep ob/ob mice given leptin, α-MSH analog or both (Example 4, FIG. 6); details: 3 μg of each compound i.p. once daily; lep ob/ob mice aged 2 months; compared to untreated controls
Experimental: To assess a more general effect of peripheral melanocortin on adipocytes, another genetic form of obesity, in lep^ob/ob mice, was treated with the α-MSH analog. In this experiment, the mice received leptin or the α-MSH analog alone, and in combination. Briefly, obese lep^ob/ob mice at age 2 months (2 per group) received daily either: (1) 3 μg of α-MSH analog (described in Examples 2 and 3 above); (2) 3 μg of recombinant mouse leptin; (3) 3 μg of α-MSH analog and 3 μg of recombinant mouse leptin in combination; or (4) saline. The compounds were delivered intraperitoneally once daily, 1-2 hours before the onset of darkness.

wildtype mice = assay: Weight change and food intake by diet and MSH analog treatment, wildtype mice (Example 3, Table 1); details: MSH analog i.p. 1 or 2 μg once daily
Experimental: (§3) P values were determined by ANOVA. If the major component of weight regulation through the melanocortinergic pathway was the regulation of feeding behavior, the observed changes in body weight in POMC null mutant mice should be paralleled by a similar pattern in food uptake. This, however, was not observed (FIGS. 5B and 5D and Table 1).

[3] = tested on: POMC homozygous mutant female mice; assay: Daily intraperitoneal α-MSH analog in POMC homozygous mutant mice: body weight, food intake, coat (Example 2)
Experimental: as §1, §2
An effect of MSH could also be seen on coat pigmentation. […] Yellow coat pigmentation gradually reappeared after MSH treatment was terminated (data not shown).

POMC null mutant mice = assay: Weight change and food intake by diet and MSH analog treatment, POMC null mutant mice (Example 3, Table 1)
Experimental: as §3

[4] = tested on: ob/ob mutant mice (C57BL/6J-Lep^ob); assay: Circulating MSH levels by RIA in ob/ob mutants treated with leptin (Example 5, FIG. 7); details: leptin 7 microgram/day i.p., two hours after the tenth daily injection
Experimental: To test the inductive ability of leptin on circulating MSH levels, ob/ob mutants (ob/ob mutant mice (C57BL/6J-Lep^ob) and congenic controls were purchased from the Jackson Laboratory, Bar Harbor, Me.) were treated with leptin (7 microgram/day) or with vehicle alone (Murine recombinant leptin was kindly provided by Dr. A. F. Parlow through the National Hormone and Pituitary Program (NHPP); hormones were diluted to 70 micrograms per milliliter in PBS; mice were injected intraperitoneally with 0.1 mL). Two hours after the tenth daily injection, blood samples were drawn from the retro-orbital sinus and analyzed for MSH levels by RIA following the manufacturer's instructions (Peninsula Laboratories, Belmont, Calif.).

[5] = daily injections of 7 micrograms, ob/ob mutants
[6] = both genotypes on standard diet & MSH analog treatment
[7] = mutant mice, MSH analog i.p. 1 or 2 μg once daily

Molecule: [Ac-Cys^4, D-Phe^7, Cys^10] α-MSH (4-13) [MSH analog]
- core temperature during exposure to 4° C. (ob/ob mutants [1]): maintained their core temperature much better; also recorded: increases thermal homeostasis
- weight loss in wildtype littermates (wildtype female mice; listed as MSH-agonist): no significant weight loss
- weight loss in wildtype littermates (wildtype female mice; listed as stable α-MSH agonist): did not lose significant weight
- weight gained during one week under MSH analog treatment (wildtype female mice; wildtype littermates, second week of treatment): 0.3 g
- weight gain in one week after MSH analog treatment had been stopped for two weeks (wildtype female mice; wildtype littermates, third week after termination): 0.3 g
- food intake during one week under MSH analog treatment (wildtype female mice; wildtypes, second week of treatment): 20.7 g
- food intake in one week after MSH analog treatment had been stopped for two weeks (wildtype female mice; wildtypes, third week after termination): 24.2 g
- supplementing the weight reducing effect of leptin (ob/ob mutants [2]; MSH analog together with a leptin dose sufficient to induce normal MSH levels, ob/ob mice): inability of peripheral MSH analog to supplement the weight reducing effect
- effect on weight gain compared with effect on food intake (ob/ob mutants [2]; [5]): greater on weight gain than on food intake
- weight gain (ob/ob mutants [2]; [5]): effectively decreased weight gain; also recorded: decreases weight gain
- total weight change over a period of 10 days (obese lep^ob/ob mice): slowed weight gain by almost half
- food intake, standard diet v. standard diet & MSH analog treatment (wildtype mice): decreases food intake and ↓
- weight change, standard diet v. standard diet & MSH analog treatment (wildtype mice): completely capable of maintaining their body weight constant and ←→
- weight loss by 2 weeks ([3]; 1 microgram (~1 nmol) i.p. daily, mutant female mice, listed as MSH-agonist): 46 % of excess weight
- weight loss by 2 weeks ([3]; 1 microgram (~1 nmol) i.p. daily, mutant female mice, listed as stable α-MSH agonist): over 40 % of excess weight
- weight loss within one week ([3]; 1 microgram (~1 nmol) i.p. daily, mutant female mice, within one week): 38 % of excess weight
- time until mutant mice started to gain weight after MSH injections were stopped ([3]; after the 16-day treatment ended): about 10 days
- coat pigmentation ([3]; mice treated for two weeks): lost their yellowish tinge
- weight lost during one week under MSH analog treatment ([3]; mutant mice, second week of treatment): 0.5 g
- weight gained in one week after MSH analog treatment had been stopped for two weeks ([3]; mutant mice, third week after termination): 1.7 g
- food intake during one week under MSH analog treatment ([3]; mutants, second week of treatment): 22.7 g
- food intake in one week after MSH analog treatment had been stopped for two weeks ([3]; mutants, third week after termination): 35.7 g
- food intake, wildtype v. mutant (POMC null mutant mice; [6]): ↑
- weight change, wildtype v. mutant (POMC null mutant mice; [6]): ↓
- food intake, standard diet v. standard diet & MSH analog treatment (POMC null mutant mice; [7]): decreases food intake and ↓
- weight change, standard diet v. standard diet & MSH analog treatment (POMC null mutant mice; [7]): lose excess weight and ↓

B1: leptin: recombinant mouse leptin, product of the ob gene; Example 5 material provided through the NHPP (protein, UniProt P41160 22-167, looked up)
Leptin: VPIQKVQDDTKTLIKTIVTRINDISHTQSVSAKQRVTGLDFIPGLHPILSLSKMDQTLAVYQQVLTSLPSQNVLQIANDLENLRDLLHLLAFSKSCSLPQTSGLQKPESLDGVLEASLYSTEVVALSRLQGSLQDILQQLDVSPEC
- weight gain (ob/ob mutants [2]; [5]): effectively decreased weight gain
- total weight change over a period of 10 days (obese lep^ob/ob mice): little effect on preventing further weight gain
- circulating MSH levels [4]: approached those found in normal control mice; also recorded: induces almost normal levels of circulating MSH
